Experimental data reported in ChEMBL document CHEMBL1201862, “PubChem BioAssay data set” (2004).
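Tested at 5 concentrations; 48 h exposure; 96-well plates; endpoints linearly interpolated, else capped at highest concentration. GI50 is the concentration that inhibits growth by half.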 Calls of active or inactive are those of the source. Cut-off read from the data, not from the text of the source: active = GI50 up to about 1.1 µM and inactive = higher.

Legend:
Experiment in all cases: DTP human tumour cell line panel, 48 h
BT-549 = tested on: BT-549
CCRF-CEM = tested on: CCRF-CEM
HCT-15 = tested on: HCT-15
HOP-92 = tested on: HOP-92
HT-29 = tested on: HT-29
IGROV-1 = tested on: IGROV-1
KM12 = tested on: KM12
LOX IMVI = tested on: LOX IMVI
MCF7 = tested on: MCF7
MDA-MB-435 = tested on: MDA-MB-435
Malme-3M = tested on: Malme-3M
OVCAR-4 = tested on: OVCAR-4
OVCAR-5 = tested on: OVCAR-5
RPMI-8226 = tested on: RPMI-8226
RXF 393 = tested on: RXF 393
SNB-19 = tested on: SNB-19
SNB-75 = tested on: SNB-75
SR = tested on: SR
SW-620 = tested on: SW-620
UO-31 = tested on: UO-31

Measured: GI50

CC1=CCCC2C1(C)CCC(C)C2(C)Cc1cc(O)ccc1O (configuration not stated)
inactive: BT-549 5.22 µM | CCRF-CEM 1.56 µM | HOP-92 5.79 µM | HT-29 18.7 µM | IGROV-1 5.94 µM | KM12 5.94 µM | LOX IMVI 5.48 µM | MCF7 5.62 µM | MDA-MB-435 7.24 µM | Malme-3M 17.7 µM | OVCAR-4 10.8 µM | OVCAR-5 21 µM | RPMI-8226 2.86 µM | RXF 393 7.6 µM | SNB-19 5.68 µM | SNB-75 7.66 µM | SR 5.46 µM | SW-620 6.12 µM | UO-31 4.84 µM
8.73 µM: HCT-15

C/C=C/C=C/C1=NN(c2cccc(S(=O)(=O)O)c2)C2(C1)C(Cl)C(=O)N2c1nc2ccccc2s1 (configuration not stated)
inactive: BT-549 17.7 µM | CCRF-CEM 3.01 µM | HOP-92 24.5 µM | HT-29 17 µM | IGROV-1 11 µM | KM12 13.6 µM | LOX IMVI 7.85 µM | MCF7 13.4 µM | MDA-MB-435 13.4 µM | Malme-3M 17.1 µM | OVCAR-4 13.7 µM | OVCAR-5 17.4 µM | RPMI-8226 17.3 µM | RXF 393 6.3 µM | SNB-19 15.2 µM | SNB-75 12.4 µM | SR 18.9 µM | SW-620 20.2 µM | UO-31 2 µM
14.5 µM: HCT-15

CSC(CC(=O)O)C(=O)O (configuration not stated)
> 100 µM: HCT-15
inactive: BT-549 > 100 µM | CCRF-CEM > 100 µM | HOP-92 > 100 µM | HT-29 > 100 µM | IGROV-1 > 100 µM | KM12 > 100 µM | LOX IMVI > 100 µM | MCF7 > 100 µM | MDA-MB-435 > 100 µM | Malme-3M > 100 µM | OVCAR-4 > 100 µM | OVCAR-5 > 100 µM | RPMI-8226 > 100 µM | RXF 393 > 100 µM | SNB-19 > 100 µM | SNB-75 > 100 µM | SR > 100 µM | SW-620 > 100 µM | UO-31 > 100 µM

CC(C)(C)C(=O)C(N)C(=O)C(C)(C)C
> 100 µM: HCT-15
inactive: BT-549 > 100 µM | CCRF-CEM > 100 µM | HOP-92 > 100 µM | KM12 > 100 µM | LOX IMVI > 100 µM | MCF7 > 100 µM | MDA-MB-435 > 100 µM | Malme-3M > 100 µM | OVCAR-4 > 100 µM | OVCAR-5 > 100 µM | RPMI-8226 > 100 µM | RXF 393 > 100 µM | SNB-19 > 100 µM | SNB-75 > 100 µM | SR > 100 µM | SW-620 > 100 µM | UO-31 > 100 µM

COC(=O)C1C2OC(C)(C)OC2CN1S(=O)(=O)c1ccc(C)cc1 (configuration not stated)
> 100 µM: HCT-15
inactive: BT-549 > 100 µM | CCRF-CEM > 100 µM | HOP-92 > 100 µM | HT-29 > 100 µM | IGROV-1 14.5 µM | KM12 > 100 µM | LOX IMVI > 100 µM | MCF7 > 100 µM | MDA-MB-435 > 100 µM | Malme-3M > 100 µM | OVCAR-4 > 100 µM | OVCAR-5 > 100 µM | RPMI-8226 > 100 µM | RXF 393 > 100 µM | SNB-19 > 100 µM | SNB-75 10.9 µM | SR > 100 µM | SW-620 > 100 µM | UO-31 > 100 µM

CC1ON2CCCC2[C@H]1C(=O)N1C2CC3CCC2(CS1(=O)=O)C3(C)C (some centres not stated)
inactive: BT-549 > 100 µM | CCRF-CEM > 100 µM | HOP-92 > 100 µM | HT-29 > 100 µM | IGROV-1 > 100 µM | KM12 > 100 µM | LOX IMVI > 100 µM | MCF7 > 100 µM | MDA-MB-435 > 100 µM | Malme-3M > 100 µM | OVCAR-4 > 100 µM | OVCAR-5 > 100 µM | RPMI-8226 > 100 µM | RXF 393 > 100 µM | SNB-75 > 100 µM | SR > 100 µM | SW-620 > 100 µM | UO-31 > 100 µM
> 100 µM: HCT-15

c1ccc2c(NCCCCCCNc3c4ccccc4nc4ccccc34)c3ccccc3nc2c1
active: CCRF-CEM 0.0471 µM | HOP-92 0.24 µM | HT-29 0.0287 µM | IGROV-1 0.166 µM | KM12 0.215 µM | LOX IMVI 0.105 µM | MCF7 0.155 µM | MDA-MB-435 0.887 µM | OVCAR-4 0.429 µM | OVCAR-5 0.13 µM | RPMI-8226 < 0.0358 µM | RXF 393 0.191 µM | SNB-19 0.649 µM | SNB-75 0.713 µM | SR 0.0288 µM | SW-620 0.0458 µM
4.34 µM: HCT-15
inactive: BT-549 1.5 µM | Malme-3M 1.17 µM | UO-31 11.3 µM
